Measured values published in patent publication US11427558B1, “Indazoles and azaindazoles as LRRK2 inhibitors” (ESCAPE Bio, Inc., priority 2019, dated 2022).

Assays:
[1] = molecular target: Recombinant wild type LRRK2 protein (Homo sapiens (Human), UniProt Q5S007); experiment: LRRK2 kinase activity, LanthaScreen TR-FRET assay (wild type); type: biochemical; details: LRRKtide 400 nM, 25 μM ATP, 60 min; read-out: LRRK2 WT IC50
Procedure, shortened: (§1)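 Recombinant human wild-type or G2019S LRRK2 phosphorylated fluorescein-labelled LRRKtide (ERM-based) with ATP and serially diluted compound for 60 min at room temperature.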

[2] = molecular target: Recombinant G2019S-LRRK2 protein (Homo sapiens (Human), UniProt Q5S007, G2019S); experiment: LRRK2 kinase activity, LanthaScreen TR-FRET assay (G2019S); type: biochemical; details: LRRKtide 400 nM, 25 μM ATP, 60 min
Procedure, shortened: as §1

Recombinant G2019S-LRRK2 protein, sequence (Q5S007 whole entry G2019S): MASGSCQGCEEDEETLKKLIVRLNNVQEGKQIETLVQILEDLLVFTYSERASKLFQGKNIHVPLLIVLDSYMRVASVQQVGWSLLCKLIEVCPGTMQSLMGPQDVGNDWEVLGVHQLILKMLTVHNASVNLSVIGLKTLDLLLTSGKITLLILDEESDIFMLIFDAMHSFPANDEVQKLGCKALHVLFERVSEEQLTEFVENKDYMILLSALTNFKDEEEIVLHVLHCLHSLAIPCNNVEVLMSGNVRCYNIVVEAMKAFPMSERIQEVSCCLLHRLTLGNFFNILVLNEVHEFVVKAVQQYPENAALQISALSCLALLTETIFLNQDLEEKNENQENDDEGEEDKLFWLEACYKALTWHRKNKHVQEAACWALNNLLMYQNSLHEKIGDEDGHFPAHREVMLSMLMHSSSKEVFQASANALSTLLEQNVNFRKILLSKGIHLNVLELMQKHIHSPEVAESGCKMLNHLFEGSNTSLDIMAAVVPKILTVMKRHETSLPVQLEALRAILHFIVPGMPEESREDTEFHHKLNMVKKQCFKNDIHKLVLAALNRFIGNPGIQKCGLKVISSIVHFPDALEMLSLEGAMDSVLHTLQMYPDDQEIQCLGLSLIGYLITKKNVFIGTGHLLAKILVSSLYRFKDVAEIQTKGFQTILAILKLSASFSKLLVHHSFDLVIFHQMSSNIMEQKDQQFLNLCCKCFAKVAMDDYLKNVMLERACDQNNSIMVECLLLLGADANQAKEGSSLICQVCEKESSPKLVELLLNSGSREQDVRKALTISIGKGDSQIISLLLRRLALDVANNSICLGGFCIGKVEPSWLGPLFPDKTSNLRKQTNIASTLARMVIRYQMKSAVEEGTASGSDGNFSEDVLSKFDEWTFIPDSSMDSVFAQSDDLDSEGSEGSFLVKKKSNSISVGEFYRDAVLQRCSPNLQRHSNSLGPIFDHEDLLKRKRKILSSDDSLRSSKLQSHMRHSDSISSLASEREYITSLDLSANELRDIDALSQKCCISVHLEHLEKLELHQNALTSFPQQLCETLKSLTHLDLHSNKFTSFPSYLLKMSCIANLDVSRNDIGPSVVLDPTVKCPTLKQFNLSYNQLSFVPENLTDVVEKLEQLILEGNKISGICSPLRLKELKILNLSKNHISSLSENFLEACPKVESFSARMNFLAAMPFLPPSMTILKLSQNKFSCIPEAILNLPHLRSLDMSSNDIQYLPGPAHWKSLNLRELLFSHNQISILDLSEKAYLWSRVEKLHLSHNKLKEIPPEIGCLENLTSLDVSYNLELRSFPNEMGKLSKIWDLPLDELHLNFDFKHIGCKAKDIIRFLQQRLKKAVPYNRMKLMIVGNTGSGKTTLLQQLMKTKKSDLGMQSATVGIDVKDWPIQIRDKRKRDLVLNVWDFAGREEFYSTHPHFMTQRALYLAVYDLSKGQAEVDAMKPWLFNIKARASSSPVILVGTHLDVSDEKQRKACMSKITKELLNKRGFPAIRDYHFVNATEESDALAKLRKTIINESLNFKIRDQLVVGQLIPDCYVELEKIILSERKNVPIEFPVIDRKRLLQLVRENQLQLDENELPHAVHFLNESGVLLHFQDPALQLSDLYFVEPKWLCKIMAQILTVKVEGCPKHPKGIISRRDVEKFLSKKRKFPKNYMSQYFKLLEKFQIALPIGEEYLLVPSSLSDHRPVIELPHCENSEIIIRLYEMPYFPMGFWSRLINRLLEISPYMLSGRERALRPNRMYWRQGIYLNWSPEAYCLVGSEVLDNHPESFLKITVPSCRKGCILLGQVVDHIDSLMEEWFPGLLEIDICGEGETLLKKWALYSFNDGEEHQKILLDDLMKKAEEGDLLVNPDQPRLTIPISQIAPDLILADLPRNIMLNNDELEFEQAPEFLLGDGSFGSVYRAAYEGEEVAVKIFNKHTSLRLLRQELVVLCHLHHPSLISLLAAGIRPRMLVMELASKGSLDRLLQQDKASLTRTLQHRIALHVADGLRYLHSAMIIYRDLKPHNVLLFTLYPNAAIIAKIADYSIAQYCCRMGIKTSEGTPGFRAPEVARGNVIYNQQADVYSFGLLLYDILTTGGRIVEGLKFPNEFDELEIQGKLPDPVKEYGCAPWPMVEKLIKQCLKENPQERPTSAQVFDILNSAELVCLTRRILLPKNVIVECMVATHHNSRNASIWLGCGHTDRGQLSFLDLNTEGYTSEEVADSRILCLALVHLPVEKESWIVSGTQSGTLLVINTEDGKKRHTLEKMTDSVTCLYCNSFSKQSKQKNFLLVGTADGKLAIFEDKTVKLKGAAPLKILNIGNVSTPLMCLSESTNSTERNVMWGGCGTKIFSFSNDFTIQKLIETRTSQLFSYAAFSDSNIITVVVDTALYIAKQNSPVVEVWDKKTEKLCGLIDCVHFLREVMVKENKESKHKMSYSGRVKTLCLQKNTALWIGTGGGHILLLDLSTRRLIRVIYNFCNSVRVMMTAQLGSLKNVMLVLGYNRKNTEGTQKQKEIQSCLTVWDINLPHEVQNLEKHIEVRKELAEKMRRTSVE
Recombinant wild type LRRK2 protein, sequence (Q5S007 whole entry): as the sequence (Q5S007 whole entry G2019S) above, with S2019G counted along it

SMILES | IC50 [1] [nM] | IC50 [2] [nM]
Cc1c(C(=O)Nc2ccc3[nH]nc(C(F)(F)F)c3c2)nc(Cl)c(C#N)c1C [Example 293, 6-Chloro-5-cyano-3,4-dimethyl-N-(3-(trifluoromethyl)-1H-indazol-5-yl)picolinamide] | < 100 | < 100
Cc1n[nH]c2ccc(NC(=O)c3ncc(C#N)cc3C(C)C)cc12 [Example 294, 5-Cyano-3-isopropyl-N-(3-methyl-1H-indazol-5-yl)picolinamide] | 1000 to 10000 | 100 to 1000
Cc1n[nH]c2ccc(NC(=O)c3cccc(C#N)c3C(C)C)cc12 [Example 295, 3-Cyano-2-isopropyl-N-(3-methyl-1H-indazol-5-yl)benzamide] | 100 to 1000 | < 100
Cc1c(C(=O)Nc2ccc3[nH]nc(S(C)(=O)=O)c3c2)nc(Cl)c(C#N)c1C [Example 296, 6-Chloro-5-cyano-3,4-dimethyl-N-(3-(methylsulfonyl)-1H-indazol-5-yl)picolinamide] | 100 to 1000 | < 100
Cc1c(C#N)cnc(C(=O)Nc2ccc3[nH]nc(C)c3c2)c1C [Example 297, 5-Cyano-3,4-dimethyl-N-(3-methyl-1H-indazol-5-yl)picolinamide] | 100 to 1000 | < 100
Cc1c(C(=O)Nc2ccc3[nH]nc(C)c3c2)nc(Cl)c(C#N)c1C [Example 298, 6-Chloro-5-cyano-3,4-dimethyl-N-(3-methyl-1H-indazol-5-yl)picolinamide] | < 100 | < 100
COc1c(C#N)ccc(C)c1C(=O)Nc1ccc2[nH]nc(C)c2c1 [Example 299, 3-Cyano-2-methoxy-6-methyl-N-(3-methyl-1H-indazol-5-yl)benzamide] | 100 to 1000 | < 100
Cc1c(C#N)cnc(C(=O)Nc2ccc3[nH]nc(Br)c3c2)c1C [Example 300, N-(3-Bromo-1H-indazol-5-yl)-5-cyano-3,4-dimethylpicolinamide] | 100 to 1000 | < 100
Cc1c(C#N)cnc(C(=O)Nc2ccc3[nH]nc(Cl)c3c2)c1C [Example 301, N-(3-Chloro-1H-indazol-5-yl)-5-cyano-3,4-dimethylpicolinamide] | 1000 to 10000 | < 100
Cc1c(C(=O)Nc2ccc3[nH]nc(C)c3c2)nc(Br)c(C#N)c1C [Example 302, 6-Bromo-5-cyano-3,4-dimethyl-N-(3-methyl-1H-indazol-5-yl)picolinamide] | < 100 | < 100
Cc1c(C(=O)Nc2ccc3[nH]nc(C4CC4)c3c2)nc(Cl)c(C#N)c1C [Example 303, 6-Chloro-5-cyano-N-(3-cyclopropyl-1H-indazol-5-yl)-3,4-dimethylpicolinamide] | < 100 | < 100
COc1nc(C(=O)Nc2ccc3[nH]nc(C4CC4)c3c2)c(C)c(C)c1C#N [Example 304, 5-Cyano-N-(3-cyclopropyl-1H-indazol-5-yl)-6-methoxy-3,4-dimethylpicolinamide] | < 100 | < 100
Cc1nc(C(=O)Nc2ccc3[nH]nc(C4CC4)c3c2)c(C)c(C)c1C#N [Example 305, 5-Cyano-N-(3-cyclopropyl-1H-indazol-5-yl)-3,4,6-trimethylpicolinamide] | 100 to 1000 | < 100
Cc1c(C(=O)Nc2ccc3[nH]nc(C)c3c2)ncc(C#N)c1Cl [Example 306, 4-Chloro-5-cyano-3-methyl-N-(3-methyl-1H-indazol-5-yl)picolinamide] | 100 to 1000 | < 100
Cc1cc(C#N)c(Cl)nc1C(=O)Nc1ccc2[nH]nc(C)c2c1 [Example 307, 6-Chloro-5-cyano-3-methyl-N-(3-methyl-1H-indazol-5-yl)picolinamide] | 100 to 1000 | < 100
COc1n[nH]c2ccc(NC(=O)c3nc(Cl)c(C#N)c(C)c3C)cc12 [Example 308, 6-Chloro-5-cyano-N-(3-methoxy-1H-indazol-5-yl)-3,4-dimethylpicolinamide] | < 100 | < 100
N#Cc1cnc(C(=O)Nc2ccc3[nH]nc(-c4cnoc4)c3c2)c(Cl)c1 [Example 309, 3-Chloro-5-cyano-N-(3-(isoxazol-4-yl)-1H-indazol-5-yl)picolinamide] | < 100 | < 100
N#Cc1cnc(C(=O)Nc2ccc3[nH]nc(-c4cnoc4)c3c2)c(C2CC2)c1 [Example 310, 5-Cyano-3-cyclopropyl-N-(3-(isoxazol-4-yl)-1H-indazol-5-yl)picolinamide] | 100 to 1000 | < 100
COc1cccc(-c2n[nH]c3ccc(NC(=O)c4ncc(C#N)cc4C4CC4)cc23)c1 [Example 311, 5-Cyano-3-cyclopropyl-N-(3-(3-methoxyphenyl)-1H-indazol-5-yl)picolinamide] | 100 to 1000 | < 100
N#Cc1cnc(C(=O)Nc2ccc3[nH]nc(-c4cnco4)c3c2)c(C2CC2)c1 [Example 312, 5-Cyano-3-cyclopropyl-N-(3-(oxazol-5-yl)-1H-indazol-5-yl)picolinamide] | 100 to 1000 | < 100

SMILES | IC50 [1] [nM] | IC50 [2] [nM]
C=C(C)c1cc(C#N)cnc1C(=O)Nc1ccc2[nH]nc(C)c2c1 [Example 313, 5-Cyano-N-(3-methyl-1H-indazol-5-yl)-3-(prop-1-en-2-yl)picolinamide] | 1000 to 10000 | 100 to 1000
Cc1c(C#N)cnc(C(=O)Nc2cc(F)c3[nH]ncc3c2)c1C [Example 314, 5-Cyano-N-(7-fluoro-1H-indazol-5-yl)-3,4-dimethylpicolinamide] | 1000 to 10000 | 100 to 1000
Cc1c(C#N)cnc(C(=O)Nc2ccc3[nH]nc(F)c3c2)c1C [Example 315, 5-Cyano-N-(3-fluoro-1H-indazol-5-yl)-3,4-dimethylpicolinamide] | 1000 to 10000 | < 100
Cc1c(C#N)ccc(F)c1C(=O)Nc1ccc2[nH]nc(C)c2c1 [Example 316, 3-Cyano-6-fluoro-2-methyl-N-(3-methyl-1H-indazol-5-yl)benzamide] | 100 to 1000 | < 100
CSc1n[nH]c2ccc(NC(=O)c3nc(Cl)c(C#N)c(C)c3C)cc12 [Example 317, 6-Chloro-5-cyano-3,4-dimethyl-N-(3-(methylthio)-1H-indazol-5-yl)picolinamide] | < 100 | < 100
N#Cc1cnc(C(=O)Nc2ccc3[nH]nc(-c4cnco4)c3c2)c(Cl)c1 [Example 318, 3-Chloro-5-cyano-N-(3-(oxazol-5-yl)-1H-indazol-5-yl)picolinamide] | < 100 | < 100
Cc1cc(C#N)cnc1C(=O)Nc1ccc2[nH]nc(-c3cccc(P(C)(C)=O)c3)c2c1 [Example 319, 5-Cyano-N-(3-(3-(dimethylphosphoryl)phenyl)-1H-indazol-5-yl)-3-methylpicolinamide] | 100 to 1000 | < 100
Cc1c(C(=O)Nc2ccc3[nH]nc(Cl)c3c2)nc(Cl)c(C#N)c1C [Example 320, 6-Chloro-N-(3-chloro-1H-indazol-5-yl)-5-cyano-3,4-dimethylpicolinamide] | < 100 | < 100
COc1nc(C(=O)Nc2ccc3[nH]nc(Cl)c3c2)c(C)c(C)c1C#N [Example 321, N-(3-Chloro-1H-indazol-5-yl)-5-cyano-6-methoxy-3,4-dimethylpicolinamide] | 100 to 1000 | < 100
COc1nc(C(=O)Nc2ccc3[nH]nc(C)c3c2)c(C)c(C)c1C#N [Example 322, 5-Cyano-6-methoxy-3,4-dimethyl-N-(3-methyl-1H-indazol-5-yl)picolinamide] | < 100 | < 100
Cc1cc(C#N)cnc1C(=O)Nc1ccc2[nH]nc(CCCN3CCCCC3)c2c1 [Example 323, 5-cyano-3-methyl-N-(3-(3-(piperidin-1-yl)propyl)-1H-indazol-5-yl)picolinamide] | > 10000 | > 10000
Cc1c(C(=O)Nc2ccc3[nH]nc(Br)c3c2)nc(Cl)c(C#N)c1C [Example 324, N-(3-Bromo-1H-indazol-5-yl)-6-chloro-5-cyano-3,4-dimethylpicolinamide] | < 100 | < 100
Cc1nc(C(=O)Nc2ccc3[nH]nc(C)c3c2)c(C)c(C)c1C#N [Example 325, 5-Cyano-3,4,6-trimethyl-N-(3-methyl-1H-indazol-5-yl)picolinamide] | 1000 to 10000 | < 100
Cc1c(C#N)cnc(C(=O)Nc2ccc3[nH]nc(C)c3c2)c1Cl [Example 326, 3-Chloro-5-cyano-4-methyl-N-(3-methyl-1H-indazol-5-yl)picolinamide] | 100 to 1000 | < 100
Cc1c(C(=O)Nc2ccc3[nH]nc(C4CC4)c3c2)nc(C(F)F)c(C#N)c1C [Example 327, 5-Cyano-N-(3-cyclopropyl-1H-indazol-5-yl)-6-(difluoromethyl)-3,4-dimethylpicolinamide] | < 100 | < 100
Cc1c(C(=O)Nc2ccc3[nH]nc(C4CC4)c3c2)nc(C(F)(F)F)c(C#N)c1C [Example 328, 5-Cyano-N-(3-cyclopropyl-1H-indazol-5-yl)-3,4-dimethyl-6-(trifluoromethyl)picolinamide] | < 100 | < 100
COc1n[nH]c2ccc(NC(=O)c3nc(Br)c(C#N)c(C)c3C)cc12 [Example 329, 6-Bromo-5-cyano-N-(3-methoxy-1H-indazol-5-yl)-3,4-dimethylpicolinamide] | < 100 | < 100
Cc1c(C(=O)Nc2ccc3[nH]nc(C4CC4)c3c2)nc(Br)c(C#N)c1C [Example 330, 6-Bromo-5-cyano-N-(3-cyclopropyl-1H-indazol-5-yl)-3,4-dimethylpicolinamide] | < 100 | < 100
Cc1c(Cl)c(C(=O)Nc2ccc3[nH]nc(C4CC4)c3c2)nc(Cl)c1C#N [Example 331, 3,6-Dichloro-5-cyano-N-(3-cyclopropyl-1H-indazol-5-yl)-4-methylpicolinamide] | < 100 | < 100
